Reference: patent US20100119499A1, “STILBENE-BASED COMPOSITIONS AND METHODS OF USE THEREFOR” (priority 2009, published 2010)
Like-named read-outs stand apart in the source and are kept apart here.

Key:
healthy, adult humans = assay: oral pterostilbene in humans, whole blood glucose by finger prick glucometer; type: in vivo
Experimental: In work described herein using pterostilbene orally in humans (supplied by Chromadex, 10005 Muirlands Boulevard, Suite G, Irvine, Calif. 92618, USA) dosing of oral pterostilbene was initially started at a lower dose than the calculated HED, with the intent of titrating the dose up as needed.
The test subject was immediately treated with oral glucose and other carbohydrates and recovered without other incident. […] At oral dosing above 0.165 mg/kg (actual dose tested 20 mg) pterostilbene is capable of inducing profound hypoglycemia (e.g., whole blood glucose at or below 55 mg/dL) and the side effects associated with this condition. Accordingly, at the doses predicted by the FDA/CDER formula, oral administration of pterostilbene to humans would likely be fatal.

humans = assay: oral pterostilbene combined with nutrients, athletic performance in humans; type: in vivo, human
Experimental: Additional work described herein addressed the effects of combining oral pterostilbene with various nutrients on athletic performance. Specifically, oral pterostilbene was administered with creatine supplements, and the effect of this combination was compared with the effect of creatine supplements alone.
The addition of exogenous dietary carbohydrates such as glucose, isolmaltulose, leucrose, trehalose, trehalulose, amylose, ribose, and maltodextrin to the creatine-containing supplement allowed for even higher pterostilbene dosing (up to 25 mg of oral pterostilbene) and produced an even more pronounced, immediate increase in athletic performance without the onset of hypoglycemia.
While not wishing to be bound by any particular theory, the inventors believe that pterostilbene increases or otherwise effects a change in the rate and quantity of the transfer of these nutrients from the blood plasma into the tissues and organs. Such dietary nutrients include, but are not limited to, creatine and its salts esters, amides and chelates, creatinol-O-phosphate, branched chain amino acids (leucine, isoleucine, valine) and their salts, esters, amides and chelates, branched chain keto-acids including, but not limited to ketoisocaproate and its salts, other ergogenic, performance-enhancing amino acids including, but not limited to, taurine, beta-alanine, arginine, ornithine, aspartic acid, glutamine, glutaric acid, agmatine, citrulline, norvaline, glycine, cysteine and their salts, ester, amides and chelates, performance enhancing dipeptides including, but not limited to, carnitine, anserine and carnosine and their salts and esters and proteins that are known to contain dipeptides such as whey or soy or egg protein isolates or concentrates or any combination of these non-carbohydrate based dietary nutrients.
Further, the addition and oral consumption of one or more exogenous dietary carbohydrates, including but not limited to rice oligodextrin, amylose, amylopectin, glucose, maltodextrin, maltose, isolmaltulose, leucrose, trehalulose, ribose, trehalose, and/or fructose in conjunction with pterostilbene and a non-carbohydrate based dietary nutrient or nutrients simultaneously further increases the athletic performance-enhancing effects of pterostilbene and the non-carbohydrate dietary nutrient(s) by up to 50% and also increases the tolerability of pterostilbene in humans by up to 50%.

[1] = ABAP-derived peroxyl radicals; cited from earlier work
normal human fibroblasts = conditions: cited from earlier work
[2] = test system: streptozotocin-induced hyperglycemic rats; conditions: cited from earlier work
rats = conditions: doses 10 mg/kg up to 40 mg/kg bodyweight; cited from earlier work
DPPH radical scavenging = conditions: converted value in brackets
[3] = inhibition of citronellal thermo-oxidation; conditions: converted value in brackets
[4] = total reactive antioxidant potential against ABAP-derived peroxyl radicals; conditions: converted value in brackets
MAO leukemia cell line = conditions: relative to cis-resveratrol; cited from earlier work
[5] = 5 mg oral (0.0486 mg/kg) added to creatine-containing liquid supplement vs supplement alone, one healthy person
[6] = pterostilbene plus non-carbohydrate nutrient(s) plus exogenous dietary carbohydrates, oral

| SMILES | drop of whole blood glucose level (healthy, adult humans; 30 mg oral single dose (about 0.248 mg/kg), one healthy person, within fifteen minutes) | oral dose above which profound hypoglycemia and its side effects are induced (healthy, adult humans; profound hypoglycemia e.g. whole blood glucose at or below 55 mg/dL, actual dose tested 20 mg) | effect on athletic performance (humans; 3 mg to 20 mg added to a creatine-containing supplement) | immediate increase in anaerobic work capacity (humans; [5]) [%] | immediate increase in maximal exertion power (humans; [5]) [%] | oral dose possible without the onset of hypoglycemia (humans; human, in vivo, po) | further increase of athletic performance-enhancing effects by added carbohydrates (humans; [6]) | increase of tolerability in humans by added carbohydrates (humans; [6]) | total reactive antioxidant potential [1] [mM] | reduction of thiobarbituric acid reactive substances (TBARS) production (normal human fibroblasts) [%] | lowering of blood glucose level [2] [%] | adverse effects (rats) | EC50, scavenging of DPPH radicals (DPPH radical scavenging) [µg/mL] | EQ value, inhibition of cintronellal thermo-oxidation [3] [mg/mL] | total reactive antioxidant potential [4] [mg/mL] | ability to induce apoptosis compared to cis-resveratrol (MAO leukemia cell line) |
| --- | --- | --- | --- | --- | --- | --- | --- | --- | --- | --- | --- | --- | --- | --- | --- | --- |
| COc1cc(/C=C/c2ccc(O)cc2)cc(OC)c1 [pterostilbene, trans-3,5-dimethoxy-4′-hydroxystilbene] | about 50 mg/dL | above 0.165 mg/kg | improves athletic performance dramatically | ~12 | ~8 | up to 25 mg | up to 50% | up to 50% | 237 ± 58 | 61 | 42 | no adverse effects noted | ~7680 | ~90.9 | ~60.7 |  |
| Oc1ccc(/C=C/c2cc(O)cc(O)c2)cc1 [trans-reseveratrol] |  |  |  |  |  |  |  |  |  |  |  |  |  |  |  | ten times more potent |
